Test results as given in a compilation of properties of binary mixtures (doi:10.1016/j.fluid.2015.05.023).

Experiment: xn = mol fraction of the nth substance listed
Details: 100 kPa

For `CCCCn1cc[n+](CCCC)c1.O=S(=O)([N-]S(=O)(=O)C(F)(F)F)C(F)(F)F` + O, the viscosity (298.15 K, x2 = 0.1843) was 48.47 mPa·s, the viscosity (303.15 K, x2 = 0.1843) was 39.12 mPa·s and the viscosity (313.15 K, x2 = 0.1843) was 26.74 mPa·s. The viscosity (318.15 K, x2 = 0.1843) was 22.52 mPa·s, the viscosity (323.15 K, x2 = 0.1843) was 19.19 mPa·s and the viscosity (328.15 K, x2 = 0.1843) was 16.51 mPa·s. For the same compound, the viscosity (333.15 K, x2 = 0.1843) was 14.32 mPa·s, the viscosity (338.15 K, x2 = 0.1843) was 12.53 mPa·s and the viscosity (343.15 K, x2 = 0.1843) was 11.04 mPa·s. The viscosity (348.15 K, x2 = 0.1843) was 9.78 mPa·s and the viscosity (353.15 K, x2 = 0.1843) was 8.73 mPa·s.

Work on `CCCCCCCn1cc[n+](CCCCCCC)c1.O=S(=O)([N-]S(=O)(=O)C(F)(F)F)C(F)(F)F` + O yielded a viscosity (298.15 K, x2 = 0.1365) of 100.8 mPa·s, a viscosity (303.15 K, x2 = 0.1365) of 78.57 mPa·s and a viscosity (308.15 K, x2 = 0.1365) of 62.48 mPa·s. For the same compound, the viscosity (313.15 K, x2 = 0.1365) was 50.44 mPa·s, the viscosity (318.15 K, x2 = 0.1365) was 41.29 mPa·s and the viscosity (323.15 K, x2 = 0.1365) was 34.22 mPa·s. The viscosity (328.15 K, x2 = 0.1365) was 28.65 mPa·s, the viscosity (333.15 K, x2 = 0.1365) was 24.25 mPa·s and the viscosity (338.15 K, x2 = 0.1365) was 20.67 mPa·s. For the same compound, the viscosity (343.15 K, x2 = 0.1365) was 17.8 mPa·s, the viscosity (348.15 K, x2 = 0.1365) was 15.46 mPa·s and the viscosity (353.15 K, x2 = 0.1365) was 13.51 mPa·s. The viscosity (358.15 K, x2 = 0.1365) was 11.9 mPa·s and the viscosity (363.15 K, x2 = 0.1365) was 10.53 mPa·s.

Compound `Cn1cc[n+](C)c1.O=S(=O)([N-]S(=O)(=O)C(F)(F)F)C(F)(F)F` + O has a viscosity (298.15 K, x2 = 0.3548) of 18.59 mPa·s, a viscosity (303.15 K, x2 = 0.3548) of 15.87 mPa·s and a viscosity (308.15 K, x2 = 0.3548) of 13.73 mPa·s. For the same compound, the viscosity (313.15 K, x2 = 0.3548) was 11.99 mPa·s, the viscosity (318.15 K, x2 = 0.3548) was 10.57 mPa·s and the viscosity (323.15 K, x2 = 0.3548) was 9.39 mPa·s. It also gave a viscosity (328.15 K, x2 = 0.3548) of 8.39 mPa·s, a viscosity (333.15 K, x2 = 0.3548) of 7.55 mPa·s and a viscosity (338.15 K, x2 = 0.3548) of 6.84 mPa·s. The viscosity (343.15 K, x2 = 0.3548) was 6.22 mPa·s, the viscosity (348.15 K, x2 = 0.3548) was 5.69 mPa·s and the viscosity (353.15 K, x2 = 0.3548) was 5.23 mPa·s. For the same compound, the viscosity (358.15 K, x2 = 0.3548) was 4.82 mPa·s and the viscosity (363.15 K, x2 = 0.3548) was 4.46 mPa·s.

For `CCn1cc[n+](CC)c1.O=S(=O)([N-]S(=O)(=O)C(F)(F)F)C(F)(F)F` + O, the viscosity (298.15 K, x2 = 0.2772) was 19.32 mPa·s, the viscosity (303.15 K, x2 = 0.2772) was 16.55 mPa·s and the viscosity (308.15 K, x2 = 0.2772) was 14.34 mPa·s. For the same compound, the viscosity (313.15 K, x2 = 0.2772) was 12.53 mPa·s, the viscosity (323.15 K, x2 = 0.2772) was 9.8 mPa·s and the viscosity (328.15 K, x2 = 0.2772) was 8.75 mPa·s. The viscosity (333.15 K, x2 = 0.2772) was 7.87 mPa·s, the viscosity (338.15 K, x2 = 0.2772) was 7.11 mPa·s and the viscosity (343.15 K, x2 = 0.2772) was 6.46 mPa·s. For the same compound, the viscosity (348.15 K, x2 = 0.2772) was 5.89 mPa·s, the viscosity (353.15 K, x2 = 0.2772) was 5.39 mPa·s and the viscosity (363.15 K, x2 = 0.2772) was 4.57 mPa·s.

`CCCC[n+]1ccn(C)c1.O=S(=O)([N-]S(=O)(=O)C(F)(F)F)C(F)(F)F` + O gave a viscosity (298.15 K, x2 = 0.257) of 31.31 mPa·s, a viscosity (303.15 K, x2 = 0.257) of 25.93 mPa·s and a viscosity (308.15 K, x2 = 0.257) of 21.78 mPa·s. It also gave a viscosity (313.15 K, x2 = 0.257) of 18.52 mPa·s, a viscosity (318.15 K, x2 = 0.257) of 15.92 mPa·s and a viscosity (323.15 K, x2 = 0.257) of 13.82 mPa·s. It also gave a viscosity (328.15 K, x2 = 0.257) of 12.1 mPa·s, a viscosity (338.15 K, x2 = 0.257) of 9.475 mPa·s and a viscosity (348.15 K, x2 = 0.257) of 7.629 mPa·s. It also gave a viscosity (358.15 K, x2 = 0.257) of 6.275 mPa·s and a viscosity (363.15 K, x2 = 0.257) of 5.73 mPa·s.

`CCCCCCn1cc[n+](CCCCCC)c1.O=S(=O)([N-]S(=O)(=O)C(F)(F)F)C(F)(F)F` + O gave a viscosity (298.15 K, x2 = 0.1489) of 83.49 mPa·s, a viscosity (308.15 K, x2 = 0.1489) of 52.59 mPa·s and a viscosity (313.15 K, x2 = 0.1489) of 42.72 mPa·s. The viscosity (318.15 K, x2 = 0.1489) was 35.17 mPa·s, the viscosity (323.15 K, x2 = 0.1489) was 29.31 mPa·s and the viscosity (333.15 K, x2 = 0.1489) was 21.02 mPa·s. For the same compound, the viscosity (338.15 K, x2 = 0.1489) was 18.06 mPa·s, the viscosity (343.15 K, x2 = 0.1489) was 15.65 mPa·s and the viscosity (348.15 K, x2 = 0.1489) was 13.67 mPa·s. The viscosity (353.15 K, x2 = 0.1489) was 12 mPa·s, the viscosity (358.15 K, x2 = 0.1489) was 10.63 mPa·s and the viscosity (363.15 K, x2 = 0.1489) was 9.466 mPa·s.

Compound `CCCCCn1cc[n+](C)c1.O=S(=O)([N-]S(=O)(=O)C(F)(F)F)C(F)(F)F` + O has a viscosity (298.15 K, x2 = 0.2211) of 38.65 mPa·s, a viscosity (303.15 K, x2 = 0.2211) of 31.67 mPa·s and a viscosity (308.15 K, x2 = 0.2211) of 26.32 mPa·s. For the same compound, the viscosity (323.15 K, x2 = 0.2211) was 16.22 mPa·s, the viscosity (328.15 K, x2 = 0.2211) was 14.08 mPa·s and the viscosity (333.15 K, x2 = 0.2211) was 12.32 mPa·s. The viscosity (338.15 K, x2 = 0.2211) was 10.87 mPa·s, the viscosity (343.15 K, x2 = 0.2211) was 9.65 mPa·s and the viscosity (348.15 K, x2 = 0.2211) was 8.63 mPa·s. For the same compound, the viscosity (353.15 K, x2 = 0.2211) was 7.75 mPa·s, the viscosity (358.15 K, x2 = 0.2211) was 7 mPa·s and the viscosity (363.15 K, x2 = 0.2211) was 6.36 mPa·s.
